Results: patent US7935705B2, “N-alkylated rifampin” (Medtronic, Inc., priority 2007, dated 2011)

What was measured:
[1] = tested on: Staphylococcus aureus (ATCC 29213); assay: Disc zone of inhibition on agar plates coated with S. aureus; format: cell-based; details: for zone of inhibition: disc containing 5 μg, agar plates coated with S. aureus ATCC 29213, 35° C. for 24 hours
Description: The ability of the compound of Formula II to inhibit growth of Staphylococcus aureus (ATCC 29213) was determined in vitro. Briefly, agar plates were coated with S. aureus and discs containing 5 μg of rifampin and 5 μg of a compound of Formula II were placed on the coated plates. The plates were incubated at 35° C. for 24 hours and the zones of inhibition of the rifampin and the compound of Formula II were determined. The zone of inhibition for the rifampin loaded disc was 28 mm. The zone of inhibition for the disc with a compound of Formula II was 18 mm.

[2] = after five EtO sterilization cycles; polymeric articles; cited from earlier work
[3] = tested on: Staphylococcus aureus (ATCC 29213); assay: Minimum Inhibitory Concentration (MIC) evaluation; format: cell-based; details: ATCC29213, S. aureus, in vitro, read-out: Baseline MIC

Molecule | zone of inhibition [1] [mm] | rifampin recoverable [2] [%] | MIC [3] [µg/mL] | activity against Staphlococcus aureus ([1]; qualitative statement in summary)
5,6,9,17,19,21-Hexahydroxy-23-methoxy-2,4,12,16,18,20,22-heptamethyl-8-[N-(4-methyl-1-piperazinyl)formimidoyl]-2,7-(epoxypentadeca[1,11,13]trienimino)-naphtho[2,1-b]furan-1,11(2H)-dione 21-acetate [rifampin] | 28 | 5 | – | –
COC1/C=C/OC2(C)Oc3c(C)c(O)c4c(O)c(c(/C=N/N5CC[N+](C)(CC[O-])CC5)c(O)c4c3C2=O)NC(=O)/C(C)=C\C=C\C(C)C(O)C(C)C(O)C(C)C(OC(C)=O)C1C (centres unmarked) [compound of Formula II] | 18 | – | 2 to 4 | has activity
